# Data taken from ChEMBL document CHEMBL3232991, “New polyfunctional imidazo[4,5-C]pyridine motifs: synthesis, crystal studies, docking studies and antimicrobial evaluation” (Eur J Med Chem, 2014).
# Active and inactive are the calls of the source. No cut-off for these calls is given here.
# Legend:
# Pseudomonas aeruginosa [1] = assay: Antibacterial activity against Pseudomonas aeruginosa MTCC 4727 assessed as diameter of growth inhibition zone at 1000 ug/ml after 20 hrs by agar disc diffusion method; assay type: functional; conditions: MTCC 4727, 20 h, read-out: DIZ
# Escherichia coli [2] = assay: Antibacterial activity against Escherichia coli NCIM 2931 assessed as diameter of growth inhibition zone at 500 ug/ml after 20 hrs by agar disc diffusion method; assay type: functional; conditions: NCIM 2931, 20 h, read-out: DIZ
# Staphylococcus aureus [3] = assay: Antibacterial activity against Staphylococcus aureus MTCC 4102 assessed as diameter of growth inhibition zone at 1000 ug/ml after 20 hrs by agar disc diffusion method; assay type: functional; conditions: MTCC 4102, 20 h, read-out: DIZ
# Saccharomyces cerevisiae [4] = assay: Antifungal activity against Saccharomyces cerevisiae NCIM 3044 assessed as diameter of growth inhibition zone at 500 ug/ml after 4 days by agar disc diffusion method; assay type: functional
# Escherichia coli [5] = assay: Antibacterial activity against Escherichia coli NCIM 2931 assessed as diameter of growth inhibition zone at 1000 ug/ml after 20 hrs by agar disc diffusion method; assay type: functional; conditions: NCIM 2931, 20 h, read-out: DIZ
# Staphylococcus aureus [6] = assay: Antibacterial activity against Staphylococcus aureus MTCC 4102 assessed as growth inhibition after 24 hrs by broth microdilution method; assay type: functional, organism-based; conditions: MTCC 4102, 24 h
# Bacillus cereus [7] = assay: Antibacterial activity against Bacillus cereus NCIM 2155 assessed as diameter of growth inhibition zone at 500 ug/ml after 20 hrs by agar disc diffusion method; assay type: functional
# Bacillus cereus [8] = assay: Antibacterial activity against Bacillus cereus NCIM 2155 assessed as diameter of growth inhibition zone at 1000 ug/ml after 20 hrs by agar disc diffusion method; assay type: functional
# Candida albicans [9] = assay: Antifungal activity against Candida albicans MTCC 183 assessed as diameter of growth inhibition zone at 500 ug/ml after 4 days by agar disc diffusion method; assay type: functional
# Saccharomyces cerevisiae [10] = assay: Antifungal activity against Saccharomyces cerevisiae NCIM 3044 assessed as diameter of growth inhibition zone at 1000 ug/ml after 4 days by agar disc diffusion method; assay type: functional
# Staphylococcus aureus [11] = assay: Antibacterial activity against Staphylococcus aureus MTCC 4102 assessed as diameter of growth inhibition zone at 500 ug/ml after 20 hrs by agar disc diffusion method; assay type: functional; conditions: MTCC 4102, 20 h, read-out: DIZ
# Pseudomonas aeruginosa [12] = assay: Antibacterial activity against Pseudomonas aeruginosa MTCC 4727 assessed as diameter of growth inhibition zone at 500 ug/ml after 20 hrs by agar disc diffusion method; assay type: functional; conditions: MTCC 4727, 20 h, read-out: DIZ
# Candida albicans [13] = assay: Antifungal activity against Candida albicans MTCC 183 assessed as diameter of growth inhibition zone at 1000 ug/ml after 4 days by agar disc diffusion method; assay type: functional
smiles,measurement,setting,value
COc1cc(-c2cnc(N3CCC(C#N)CC3)c3nc(Cc4ccc(Cl)cc4Cl)[nH]c23)ccc1F,zone of inhibition at 1000 µg/mL,Pseudomonas aeruginosa [1],8 mm
same,zone of inhibition at 500 µg/mL,Escherichia coli [2],4.1 mm
same,zone of inhibition at 1000 µg/mL,Staphylococcus aureus [3],23 mm
same,diameter of the inhibition zone (DIZ),Saccharomyces cerevisiae [4],inactive
same,zone of inhibition at 1000 µg/mL,Escherichia coli [5],9 mm
same,IC50,Staphylococcus aureus [6],100 µg/mL
same,MIC,Staphylococcus aureus [6],200 µg/mL
same,diameter of the inhibition zone (DIZ),Bacillus cereus [7],inactive
same,diameter of the inhibition zone (DIZ),Bacillus cereus [8],inactive
same,diameter of the inhibition zone (DIZ),Candida albicans [9],inactive
same,diameter of the inhibition zone (DIZ),Saccharomyces cerevisiae [10],inactive
same,zone of inhibition at 500 µg/mL,Staphylococcus aureus [11],10.5 mm
same,zone of inhibition at 500 µg/mL,Pseudomonas aeruginosa [12],3.5 mm
same,diameter of the inhibition zone (DIZ),Candida albicans [13],inactive
